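96-well plates; 48 h exposure; 5 concentrations. Endpoints by linear interpolation between flanking doses. Not reached: highest tested concentration assigned. TGI: concentration producing complete growth inhibition.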
Columns and labels:
Assay in all cases: NCI-60 cell line screen, 48 h
SK-OV-3 ovarian = tested on: SK-OV-3 ovarian
SK-MEL-2 melanoma = tested on: SK-MEL-2 melanoma
U251 CNS = tested on: U251 CNS
HL-60(TB) leukemia = tested on: HL-60(TB) leukemia
UACC-257 melanoma = tested on: UACC-257 melanoma
M14 melanoma = tested on: M14 melanoma
DLD-1 colon = tested on: DLD-1 colon
K-562 leukemia = tested on: K-562 leukemia
UACC-62 melanoma = tested on: UACC-62 melanoma
OVCAR-5 ovarian = tested on: OVCAR-5 ovarian
LXFL 529 NSCLC = tested on: LXFL 529 NSCLC
HCT-15 colon = tested on: HCT-15 colon
DMS 114 small cell lung = tested on: DMS 114 small cell lung
OVCAR-4 ovarian = tested on: OVCAR-4 ovarian
A498 renal = tested on: A498 renal
CCRF-CEM leukemia = tested on: CCRF-CEM leukemia
HOP-62 NSCLC = tested on: HOP-62 NSCLC
SF-268 CNS = tested on: SF-268 CNS
MOLT-4 leukemia = tested on: MOLT-4 leukemia
A549 NSCLC = tested on: A549 NSCLC
NCI-H460 lung = tested on: NCI-H460 lung
MALME-3M melanoma = tested on: MALME-3M melanoma
SF-539 CNS = tested on: SF-539 CNS
SNB-78 CNS = tested on: SNB-78 CNS
NCI-H23 lung = tested on: NCI-H23 lung
SK-MEL-28 melanoma = tested on: SK-MEL-28 melanoma
SF-295 CNS = tested on: SF-295 CNS
COLO 205 colon = tested on: COLO 205 colon
UO-31 renal = tested on: UO-31 renal
OVCAR-3 ovarian = tested on: OVCAR-3 ovarian
SNB-19 CNS = tested on: SNB-19 CNS
RXF-631 renal = tested on: RXF-631 renal
786-0 renal = tested on: 786-0 renal
IGROV1 ovarian = tested on: IGROV1 ovarian
RPMI-8226 leukemia = tested on: RPMI-8226 leukemia
SK-MEL-5 melanoma = tested on: SK-MEL-5 melanoma
SW-620 colon = tested on: SW-620 colon
HCC-2998 colon = tested on: HCC-2998 colon
NCI-H522 lung = tested on: NCI-H522 lung
OVCAR-8 ovarian = tested on: OVCAR-8 ovarian
KM12 colon = tested on: KM12 colon
TK-10 renal = tested on: TK-10 renal
KM20L2 colon = tested on: KM20L2 colon
RXF 393 renal = tested on: RXF 393 renal
HCT-116 colon = tested on: HCT-116 colon
HOP-92 NSCLC = tested on: HOP-92 NSCLC
M19-MEL melanoma = tested on: M19-MEL melanoma
ACHN renal = tested on: ACHN renal
SNB-75 CNS = tested on: SNB-75 CNS
EKVX NSCLC = tested on: EKVX NSCLC
SN12C renal = tested on: SN12C renal
XF 498 CNS = tested on: XF 498 CNS
HT29 colon = tested on: HT29 colon
SR leukemia = tested on: SR leukemia
CAKI-1 renal = tested on: CAKI-1 renal
LOX IMVI melanoma = tested on: LOX IMVI melanoma
NCI-H226 lung = tested on: NCI-H226 lung

For `O=C(Cc1cc[n+]([O-])cc1)C(=O)Nc1cc(Cl)c(Cl)cc1Cl`, the TGI (SK-OV-3 ovarian) was > 100 µM, the TGI (SK-MEL-2 melanoma) was > 100 µM and the TGI (U251 CNS) was > 100 µM. For the same molecule, the TGI (HL-60(TB) leukemia) was > 100 µM, the TGI (UACC-257 melanoma) was > 100 µM and the TGI (M14 melanoma) was > 100 µM. The TGI (DLD-1 colon) was > 100 µM, the TGI (K-562 leukemia) was > 100 µM and the TGI (UACC-62 melanoma) was > 100 µM. The TGI (OVCAR-5 ovarian) was > 100 µM, the TGI (LXFL 529 NSCLC) was > 100 µM and the TGI (HCT-15 colon) was > 100 µM. For the same molecule, the TGI (DMS 114 small cell lung) was > 100 µM, the TGI (OVCAR-4 ovarian) was > 100 µM and the TGI (A498 renal) was > 100 µM. For the same molecule, the TGI (CCRF-CEM leukemia) was > 100 µM, the TGI (HOP-62 NSCLC) was > 100 µM and the TGI (SF-268 CNS) was > 100 µM. The TGI (MOLT-4 leukemia) was > 100 µM, the TGI (A549 NSCLC) was > 100 µM and the TGI (NCI-H460 lung) was > 100 µM. The TGI (MALME-3M melanoma) was > 100 µM, the TGI (SF-539 CNS) was > 100 µM and the TGI (SNB-78 CNS) was > 100 µM. The TGI (NCI-H23 lung) was > 100 µM, the TGI (SK-MEL-28 melanoma) was > 100 µM and the TGI (SF-295 CNS) was > 100 µM. The TGI (COLO 205 colon) was > 100 µM, the TGI (UO-31 renal) was > 100 µM and the TGI (OVCAR-3 ovarian) was > 100 µM. The TGI (SNB-19 CNS) was > 100 µM, the TGI (RXF-631 renal) was > 100 µM and the TGI (786-0 renal) was > 100 µM. For the same molecule, the TGI (IGROV1 ovarian) was > 100 µM, the TGI (RPMI-8226 leukemia) was > 100 µM and the TGI (SK-MEL-5 melanoma) was > 100 µM. The TGI (SW-620 colon) was > 100 µM, the TGI (HCC-2998 colon) was > 100 µM and the TGI (NCI-H522 lung) was > 100 µM. The TGI (OVCAR-8 ovarian) was > 100 µM, the TGI (KM12 colon) was > 100 µM and the TGI (TK-10 renal) was > 100 µM. The TGI (KM20L2 colon) was > 100 µM, the TGI (RXF 393 renal) was > 100 µM and the TGI (HCT-116 colon) was > 100 µM. For the same molecule, the TGI (HOP-92 NSCLC) was > 100 µM, the TGI (M19-MEL melanoma) was > 100 µM and the TGI (ACHN renal) was > 100 µM. The TGI (SNB-75 CNS) was > 100 µM and the TGI (EKVX NSCLC) was > 100 µM.
`COc1cc(/C=C(\NC(=O)c2ccccc2)c2nc3[nH]c(=S)[nH]c(=O)c3[nH]2)cc(OC)c1OC` was tested, and the TGI (SK-OV-3 ovarian) was > 100 µM, the TGI (SK-MEL-2 melanoma) was > 100 µM and the TGI (U251 CNS) was > 100 µM. For the same molecule, the TGI (HL-60(TB) leukemia) was > 100 µM, the TGI (SN12C renal) was > 100 µM and the TGI (M14 melanoma) was > 100 µM. For the same molecule, the TGI (DLD-1 colon) was > 100 µM, the TGI (K-562 leukemia) was > 100 µM and the TGI (UACC-62 melanoma) was > 100 µM. The TGI (OVCAR-5 ovarian) was > 100 µM, the TGI (XF 498 CNS) was > 100 µM and the TGI (LXFL 529 NSCLC) was > 100 µM. For the same molecule, the TGI (HCT-15 colon) was > 100 µM, the TGI (DMS 114 small cell lung) was > 100 µM and the TGI (OVCAR-4 ovarian) was > 100 µM. The TGI (CCRF-CEM leukemia) was > 100 µM, the TGI (SF-268 CNS) was > 100 µM and the TGI (MOLT-4 leukemia) was > 100 µM. For the same molecule, the TGI (A549 NSCLC) was > 100 µM, the TGI (HT29 colon) was > 100 µM and the TGI (MALME-3M melanoma) was > 100 µM. The TGI (SF-539 CNS) was > 100 µM, the TGI (SNB-78 CNS) was > 100 µM and the TGI (NCI-H23 lung) was > 100 µM. For the same molecule, the TGI (SK-MEL-28 melanoma) was > 100 µM, the TGI (SF-295 CNS) was > 100 µM and the TGI (COLO 205 colon) was > 100 µM. For the same molecule, the TGI (UO-31 renal) was > 100 µM, the TGI (OVCAR-3 ovarian) was > 100 µM and the TGI (SNB-19 CNS) was > 100 µM. The TGI (RXF-631 renal) was > 100 µM, the TGI (786-0 renal) was > 100 µM and the TGI (IGROV1 ovarian) was > 100 µM. The TGI (SR leukemia) was > 100 µM, the TGI (SK-MEL-5 melanoma) was > 100 µM and the TGI (SW-620 colon) was > 100 µM. The TGI (HCC-2998 colon) was > 100 µM, the TGI (NCI-H522 lung) was > 100 µM and the TGI (OVCAR-8 ovarian) was > 100 µM. For the same molecule, the TGI (KM12 colon) was > 100 µM, the TGI (TK-10 renal) was > 100 µM and the TGI (KM20L2 colon) was > 100 µM. The TGI (RXF 393 renal) was > 100 µM, the TGI (CAKI-1 renal) was > 100 µM and the TGI (HOP-92 NSCLC) was > 100 µM. The TGI (M19-MEL melanoma) was > 100 µM, the TGI (ACHN renal) was > 100 µM and the TGI (EKVX NSCLC) was > 100 µM.
`CC1CC[C@@]23CCC4(C)[C@@](C=CC5[C@@]6(C)CCC(=O)C(C)(C)C6CC[C@]54C)(OC2=O)[C@@H]3[C@H]1C` (stereo not given in full) gave a TGI (SK-OV-3 ovarian) of 80 µM, a TGI (LOX IMVI melanoma) of 36.3 µM and a TGI (U251 CNS) of 52.9 µM. For the same molecule, the TGI (HL-60(TB) leukemia) was 13.3 µM, the TGI (SN12C renal) was > 100 µM and the TGI (UACC-257 melanoma) was 52.8 µM. For the same molecule, the TGI (M14 melanoma) was > 100 µM, the TGI (DLD-1 colon) was > 100 µM and the TGI (K-562 leukemia) was > 100 µM. The TGI (UACC-62 melanoma) was > 100 µM, the TGI (XF 498 CNS) was 34.2 µM and the TGI (LXFL 529 NSCLC) was 74.7 µM. The TGI (DMS 114 small cell lung) was 34.1 µM, the TGI (OVCAR-4 ovarian) was > 100 µM and the TGI (A498 renal) was 62.5 µM. For the same molecule, the TGI (CCRF-CEM leukemia) was 53.4 µM, the TGI (HOP-62 NSCLC) was 42.6 µM and the TGI (SF-268 CNS) was > 100 µM. For the same molecule, the TGI (MOLT-4 leukemia) was 27.8 µM, the TGI (A549 NSCLC) was 81 µM and the TGI (NCI-H460 lung) was 58 µM. The TGI (HT29 colon) was 51.3 µM, the TGI (MALME-3M melanoma) was 52 µM and the TGI (SF-539 CNS) was 86.3 µM. The TGI (SNB-78 CNS) was 67.9 µM, the TGI (NCI-H23 lung) was 42 µM and the TGI (SK-MEL-28 melanoma) was > 100 µM. It also gave a TGI (SF-295 CNS) of 73.2 µM, a TGI (COLO 205 colon) of 27.7 µM and a TGI (UO-31 renal) of 40.2 µM. For the same molecule, the TGI (OVCAR-3 ovarian) was 39.3 µM, the TGI (SNB-19 CNS) was > 100 µM and the TGI (RXF-631 renal) was 71.4 µM. For the same molecule, the TGI (786-0 renal) was > 100 µM, the TGI (IGROV1 ovarian) was > 100 µM and the TGI (SR leukemia) was 26.5 µM. For the same molecule, the TGI (SK-MEL-5 melanoma) was 28.5 µM, the TGI (SW-620 colon) was > 100 µM and the TGI (NCI-H522 lung) was 37.9 µM. The TGI (OVCAR-8 ovarian) was > 100 µM, the TGI (KM12 colon) was 36.8 µM and the TGI (NCI-H226 lung) was 58.9 µM. The TGI (TK-10 renal) was 56.5 µM, the TGI (KM20L2 colon) was > 100 µM and the TGI (RXF 393 renal) was 41.2 µM. For the same molecule, the TGI (HCT-116 colon) was 22.7 µM, the TGI (CAKI-1 renal) was > 100 µM and the TGI (HOP-92 NSCLC) was 41.7 µM. The TGI (M19-MEL melanoma) was 68.5 µM, the TGI (ACHN renal) was 78.2 µM and the TGI (SNB-75 CNS) was 55 µM. For the same molecule, the TGI (EKVX NSCLC) was 82.9 µM.
